We go through 91 molecules from the Bradley open melting point set (2014).

“And” between values parts separate entries of the source, which are not always exact repeats. Equal entries are not always repeated.

For the molecule `Brc1ccccc1Br` [o-dibromobenzene], the melting point (in general, the temperature, or range, at which the solid turns liquid) was determined as 7 °C. `CCOC(=O)n1ccn(C)c1=S` [ethyl 3-methyl-2-thionoimidazoline-1-carboxylate] showed a melting point of 124 °C. For `O=C1CCSCC1` [tetrahydro-4h-thiopyran-4-one] the value was 62 °C. For the molecule `Br/C(C)=CC` [2-bromo-cis-2-butene], the melting point is -111 °C. `O=[N+]([O-])c1cccc2ccccc12` [1-Nitronaphthalene] yielded a melting point of 62 °C. `Oc1cccc(O)c1O` [pyrogallol] showed a melting point of 133 °C. With `N#Cc1cccnc1Oc1ccccc1` [3-cyano-2-phenoxypyridine], the melting point amounted to 108 °C.

In the case of `Cc1cc(C#N)cc(C#N)c1` [5-methylisophthalonitrile], the melting point was found to be 164 °C. The same measure for `O=C(c1ccccc1)c1ccc(Cl)c(Cl)c1` [3,4-dichlorobenzophenone]: 102 °C; for `O=C(O)CCCc1ccc2ccc3cccc4ccc1c2c34` [1-pyrenebutyric acid]: 185 °C. The same measure for `CCCCCCCCN` [octylamine]: 0 °C; for `Cc1c(C)c2c(c(C)c1O)CC[C@@](C)(CCC[C@H](C)CCC[C@H](C)CCCC(C)C)O2` [Vitamin E]: 2 °C; for `CC(=O)C=C(C)c1ccc(-c2ccccc2)cc1` [Xenipentone]: 133 °C.

On to `CC(O)CN` (racemic) [dl-1-amino-2-propanol], for which the melting point was -2 °C. Take `SCc1ccc(Cl)cc1` [4-chlorobenzyl mercaptan]: the melting point was 20 °C. With `COc1ccccc1[N+](=O)[O-]` [o-nitroanisole], the melting point was found to be 10 °C. As to `CCOC(=O)Nc1ccc2c(c1)N(C(=O)CCN1CCOCC1)c1ccccc1S2` [Moricizine], the melting point was 156 °C. For `ClCc1ccccc1` [benzyl_chloride] the value was -43 °C; for `OCc1ccccn1` [2-pyridinemethanol], -6 °C. The molecule `CC(C(=O)O)c1cccc(C(=O)c2ccccc2)c1` (stereo unspecified) [Ketoprofen] yielded a melting point of 93 °C. Turning to `C[N+](C)(C)C[C@H](O)CC(=O)[O-]` [L-Carnitine], the melting point stood at 196 °C. `CS(=O)(=O)O` [methanesulfonic acid] returned a melting point of 20 °C.

As to `CCCCC1=NC2(CCCC2)C(=O)N1Cc1ccc(-c2ccccc2-c2nnn[nH]2)cc1` [irbesartan], the melting point is 180 °C. For `C[SiH](C)Cl` [chlorodimethylsilane] the value was -111 °C; for `CC(=O)Oc1ccc(C(=O)O)cc1` [4-acetoxybenzoic acid], 194 °C. Consider `Clc1cccc(-c2ccccc2)c1` [3-chlorobiphenyl], for which the melting point was 18 °C. Turning to `CC(=O)N[C@H]1[C@H](OC(C)=O)O[C@H](COC(C)=O)[C@@H](OC(C)=O)[C@@H]1OC(C)=O` [beta-D-glucosamine pentaacetate], the melting point was 187 °C. In turn, `O=C1CC(C(=O)O)c2ccccc21` (stereo unspecified) [3-oxoindane-1-carboxylic acid] yielded a melting point of 116 °C. For `c1ccc(B(c2ccccc2)c2ccccc2)cc1` [triphenylborane] the value was 147 °C. Regarding `CN(C)/C=C/[N+](=O)[O-]` [1-dimethylamino-2-nitroethylene], the melting point was 103 °C. In the case of `O=C(O)c1ccsc1` [thiophene-3-carboxylic acid], the melting point worked out at 139 °C. As for `O=C(O)c1ccccc1I` [2-iodobenzoic acid], the melting point was determined as 162 °C. For `OB(O)c1ccc(Br)cc1` [4-bromobenzeneboronic acid] the value was 284 °C; for `COc1cc(C(=O)O)cc(OC)c1OC` [Eudesmic acid], 172 °C. In the case of `C1=CC2CCC1C2` [norbornene], the melting point turned out to be 46 °C. For `O=C(O)c1cc([N+](=O)[O-])ccc1O` [5-nitrosalicylic acid] the value was 232 °C; for `O=C\1c3c(O/C(=C/1)c2ccc(O)c(O)c2)cc(O)cc3O` [luteolin], 330 °C. With `CC(=O)OC1CCC2(C)C3CCC4=C(CCC4(C)C(C)OC(C)=O)C3CCC2(C)C1` (stereo unspecified), the melting point worked out at 118 °C.

In turn, `OC(CCN1CCCCC1)(c1ccccc1)C1CCCCC1` (stereo unspecified) [trihexyphenidyl] showed a melting point of 115 °C. For `CNC=O` [n-methylformamide], the melting point is -40 °C. For `COc1cc(C(=O)OCc2cccc(COC(=O)c3cc(OC)c(OC)c(OC)c3)n2)cc(OC)c1OC` [pirozadil], the melting point was 119 °C. Take `CCC(=O)CC` [3-pentanone]: the melting point was -39 °C. In the case of `O=C(O)c1cc(Cl)cc(Cl)c1` [3,5-dichlorobenzoic acid], the melting point was 186 °C. With `Oc1ccc(Br)cc1-c1cc[nH]n1` [4-bromo-2-(1h-pyrazol-3-yl)phenol], the melting point was 162 °C. As for `Cc1cccc(O)c1` [m-cresol], the melting point amounted to 11 °C. Consider `Cc1c2ccccc2cc2ccccc12` [9-methylanthracene], for which the melting point was 78 °C and 80 °C. Take `CC(C)c1cc(C(C)C)cc(C(C)C)c1` [1,3,5-triisopropylbenzene]: the melting point was -7 °C.

On to `NCC(=O)O` [Glycine], for which the melting point stood at 240 °C. Take `O=C(O)c1ccc(F)cc1` [4-fluorobenzoic acid]: the melting point is 185 °C. For `CC(C)CCCC(C)CCCC(C)CCCCC(C)CCCC(C)CCCC(C)C` (stereo unspecified) [squalane], the melting point is -38 °C. In turn, `Brc1ccc(-c2cccc(Br)n2)cn1` [6,6'-dibromo-2,3'-bipyridine] showed a melting point of 168 °C. Take `CCn1cc(C(=O)O)c(=O)c2ccc(C)nc21` [nalidixic acid]: the melting point came to 230 °C.

`C[C@@H](O)[C@H](NC(=O)OCc1ccccc1)C(=O)O` [N-benzyloxycarbonyl-l-threonine] registered a melting point of 98 °C. The molecule `NC(=O)CI` [2-Iodoacetamide] came in with a melting point of 94 °C. As for `CCC(C)C(C)(COC(N)=O)COC(N)=O` (stereo unspecified) [mebutamate], the melting point is 77 °C. The molecule `N=C(N)NCCC[C@@H](N)C(=O)O` [D-arginine] displayed a melting point of 235 °C. As for `Nc1nc(=O)c2ncn(COC(CO)CO)c2[nH]1` [Ganciclovir], the melting point came to 250 °C. `CC(=O)Oc1ccc(C(=O)O)cc1` [4-acetoxybenzoic_acid] came in with a melting point of 194 °C. The same measure for `CC1=CCC2C3CCC4CC(=O)CCC4(C)C3CCC12C` (stereo unspecified) [17-methylandrost-16-en-3-one]: 141 °C. With `O=c1cc[nH]c(=O)[nH]1` [Uracil], the melting point came to 330 °C. Molecule `Nn1cnnc1` [4-amino-1,2,4-triazole] gave a melting point of 86 °C.

In turn, `Nc1ccc([N+](=O)[O-])cc1C(=O)c1ccccc1` [2-amino-5-nitrobenzophenone] gave a melting point of 167 °C. `CC(C)(C)C1=CC(=O)C=C(C(C)(C)C)C1=O` [2,6-di-tert-butyl-p-benzoquinone] came in with a melting point of 67 °C. On to `CCCCC(C)CC` (stereo unspecified) [3-methylheptane], for which the melting point is -121 °C. In turn, `Cn1nc(-c2ccccc2)cc1N` [5-amino-1-methyl-3-phenyl-1h-pyrazole] showed a melting point of 127 °C.

Molecule `CC1(O)CCCCC1` [1-methylcyclohexanol] showed a melting point of 26 °C. The same measure for `O=C(O)c1ccccc1Nc1cccc(C(F)(F)F)c1` [flufenamic acid]: 125 °C.

The molecule `NS(=O)(=O)c1cc2c(cc1Cl)NCNS2(=O)=O` [Hydrochlorothiazide] registered a melting point of 274 °C. Consider `CCOc1ccc(B(O)O)cc1` [4-ethoxybenzeneboronic acid], for which the melting point came out at 167 °C. As to `OC1=NC(=Nc2ccccc2)S/C1=C\c1ccccc1` [OSM-S-55], the melting point is 260 °C. For `CC1=NN(CN2CCCCC2)C(=O)/C1=N\Nc1ccc(Cl)cc1Cl`, the melting point amounted to 123 °C. In the case of `Cc1cccs1` [2-methylthiophene], the melting point was -63 °C. `COc1ccccc1-c1ccc(/C=C/C(=O)c2ccco2)o1` came in with a melting point of 97 °C.

As to `CC(=O)OC[C@H]1O[C@@H](OC(C)=O)[C@H](OC(C)=O)[C@@H]1OC(C)=O` (stereo in doubt) [beta-D-ribofuranose 1,2,3,5-tetraacetate], the melting point stood at 82 °C. `COC(=O)c1ccc(C(C)=O)cc1` [methyl 4-acetylbenzoate] registered a melting point of 86 °C. The molecule `C=C[C@H]1C[N@@]2CC[C@H]1C[C@@H]2[C@@H](O)c1ccnc2ccccc12` [(9S)-Cinchonan-9-ol] yielded a melting point of 265 °C. Consider `CCCC1COC(c2ccc(C#N)cc2)OC1` (stereo unspecified) [2-(4-cyanophenyl)-5-n-propyl-1,3-dioxane], for which the melting point came out at 58 °C. As for `CC(C)C#N` [2-Methylpropanenitrile], the melting point was -72 °C. For `Clc1ccccc1` [Chlorobenzene] the value was -45 °C; for `C[C@@H]1O[C@H](O)[C@@H](O)[C@H](O)[C@H]1O` [Rhamnose], 122 °C; for `Nc1nc(N)c2nc(-c3ccccc3)c(N)nc2n1` [triamterene], 316 °C.

As for `Brc1ccccc1` [Bromobenzene], the melting point was -31 °C. With `COc1ccc(C(C)=O)cc1` [4'-methoxyacetophenone], the melting point turned out to be 38 °C.

Molecule `O=C(c1ccccc1)c1ccc(-c2ccccc2)cc1` [4-benzoylbiphenyl] came in with a melting point of 101 °C.

For `O=C(Cl)C(Cl)(Cl)Cl` [trichloroacetyl chloride], the melting point is -56.9 °C and -57 °C.

As for `CC(C(=O)O)c1ccc(-c2ccccc2)c(F)c1` (stereo unspecified) [flurbiprofen], the melting point was 111 °C (2×) and 115 °C and 110 °C. As for `N#CCCO` [3-hydroxypropionitrile], the melting point is -46 °C. For the molecule `Nc1ccc(F)cc1[N+](=O)[O-]` [4-fluoro-2-nitroaniline], the melting point came out at 92 °C. In the case of `CC(C)NCC(O)COc1cccc2ccccc12` (stereo unspecified) [propranolol], the melting point was 162 °C. On to `CCC(C(=O)NC(=O)NC(C)=O)c1ccccc1` (stereo unspecified) [acetylpheneturide], for which the melting point was found to be 100 °C. Molecule `COC(=O)c1cc(Br)ccc1NC(C)=O` [methyl 2-acetamido-5-bromobenzoate] came in with a melting point of 134 °C.
